Assays:
FXN protein [1] = assay: Immunoblot for FXN protein in GM15850 cells; assay type: cell-based, human; conditions: GM15850, 24 hours, 1 μM (Agent 4: 0.1, 0.5 or 1 μM)
Description: (§1) In FIG. 3A, “50” refers to GM15850 cells and in FIG. 3B, “51” refers to GM15851 cells. Cells were treated as in Example 4.
(§2) Total cell extracts from cell lines were used for immunoblot analysis. Antibodies to frataxin (abcam ab110328, 1:250 dilution) or alpha-Tubulin (Cell Signaling Technologies 2144, 1:1000 dilution) were used. Signal was detected by chemiluminescence with HRP-conjugated secondary antibodies (Bio-Rad 172-1011, 1:2000 for anti-mouse frataxin and GE NA934V, 1:2000 for anti-rabbit alpha-Tubulin).

frataxin (FXN) mRNA = assay: FXN mRNA by RT-PCR (relative to TBP) in FRDA patient cell line GM15850; assay type: cell-based, human; conditions: GM15850, 1 μM, 24 hours
Description: Cells were maintained in RPMI 1640 supplemented with 2 mM L-glutamine and 15% fetal bovine serum (FBS) at 37° C. in a humidified atmosphere of 5% CO2. Cell density was maintained between 200,000 cells/mL and 1,000,000 cells/mL. Cell growth and morphology were monitored by phase contrast microscopy and cell viability by trypan blue exclusion. To maintain cell density, cells were passaged by centrifuging at 500 g for 3 minutes and resuspending the cells in fresh media. To avoid cross-contamination, cells were handled separately with separate bottles of media. Relevant data were obtained from cell lines passaged between P9 and P12.
To prepare agents for treatment of cells, each agent or agent mixture tested was dissolved in DMSO. […] 500,000 cells ells were seeded at 500,000 cells/mL and treated 24 h with agents in DMSO (0.1-0.2% DMSO final concentration). For the 24 hour treatment, cell media was changed immediately before treatment with agent and agent was added at the zero time point. The media was not changed during the 24 hour treatment time period.
After treatment with the agents or agent mixtures, cells were harvested and total RNA was purified with the RNeasy Mini Kit (Qiagen, Valencia, Calif.), including on-column DNase I treatment (ZYMO Research, Catalog number E1010), according to manufacturer's directions. […]

FXN-GAA-Luc = assay: Luciferase reporter assay, FXN-GAA-Luc line (~310 GAA repeats); assay type: cell-based; conditions: 24 hours, 2 μM unless otherwise indicated (Agent 4 at 1 or 2)
Description: This reporter, which includes a ˜310 GAA repeat, recapitulates both the transcriptional repression and the heterochromatin formation at the endogenous FXN locus that are hallmarks of the FRDA disease.
Cells containing FXN-Luc or FXN-GAA-Luc were seeded onto 24-well plates at a confluency of 20%. The next day, media was refreshed and cells were treated 24 hours with the indicated compound at the indicated concentration. Next, cell lysates were harvested and analyzed with the Luciferase Assay System (Promega, Madison, Wis.) per manufacturer's directions on a Synergy H4 Hybrid Reader (BioTek, Winooski, Vt.).

FXN protein [2] = assay: Immunoblot for FXN protein in GM15851 cells; assay type: cell-based, human; conditions: GM15851, 24 hours, 1 μM (Agent 4: 0.1, 0.5 or 1 μM)
Description: as §1, §2

Compound | FXN protein (immunoblot) (FXN protein [1]) | increase in FXN mRNA levels (frataxin (FXN) mRNA) | luciferase activity (FXN-GAA-Luc) | FXN protein (immunoblot) (FXN protein [2])
Cc1sc2c(c1C)C(c1ccc(Cl)cc1)=N[C@@H](CC(=O)OC(C)(C)C)c1nnc(C)n1-2 [JQ1] | Neither polyamide alone (3), nor JQ1, nor the unconjugated treatment induced increased production of FXN protein | no increase | Significant activation was not observed | –
Cc1sc2c(c1C)C(c1ccc(Cl)cc1)=N[C@@H](CC(=O)NCCOCCOCCOCCOCCOCCOCCC(=O)NCCCN(C)CCCNC(=O)CCNC(=O)c1cc(NC(=O)c3cc(NC(=O)c4nc(NC(=O)c5cc(NC(=O)CCCNC(=O)c6nc(NC(=O)c7cc(NC(=O)c8cc(NC(=O)c9sccc9Cl)cn8C)cn7C)cn6C)cn5C)cn4C)cn3C)cn1C)c1nnc(C)n1-2 [Control Conjugate 2] | – | no increase | – | increase in FXN protein
